Experimental data from publication PMC9085577, “Discovery of a Potent and Orally Active Dual GPBAR1/CysLT1R Modulator for the Treatment of Metabolic Fatty Liver Disease” (Frontiers in Pharmacology, 2022).

Tested on: liver transcriptome
Experiment: AmpliSeq liver transcriptome of HFD-F mice
Assay type: in vivo
Conditions: liver
Excerpt: C57BL/6J male mice were fed a high fat diet (HFD) containing 59 KJ% fat plus 1% cholesterol, w/o sugar (ssniff ® EF R/M acc. D12330 mod. 22,7 ME/kg) and fructose (HFD-F) in drinking water (42 g/L), or normal chow diet for 61 days. Food intake was estimated as the difference of weight between the offered and the remnant amount of food at 3-days intervals. The food was provided as pressed pellets and the residual spillage was not considered. After 7 days, HFD-F mice were randomized to receive HFD-F alone or in combination with compound 2 (30 mg/kg/day) by gavage until the end of the experiment. Doses of each agent were chosen according to previously published data. Mice were housed under controlled temperature (22°C) and photoperiods (12:12-h light/dark cycle), allowed unrestricted access to standard mouse chow and tap water. The experimental protocol was approved by the Animal Care and Use Committee of the University of Perugia and by the Italian Minister of Health and Istituto Superiore di Sanità (Italy) and was in agreement with the European guidelines for use of experimental animals (permission n. 583/2017-PR). The general health of the animals was monitored daily by the Veterinarian in the animal facility. At the day of sacrifice, fed mice were deeply anesthetized with a mixture of tiletamine hypochloride and zolazepam hypochloride/xylazine at a dose of 50/5 mg/kg and sacrificed before 12 a.m.
High-quality RNA was extracted from mice livers, using the Direct-zol™ RNA MiniPrep w/Zymo-Spin™ IIC Columns (Zymo Research, Irvine, CA) according to the manufacturer’s instructions. RNA quality and quantity were assessed with the Qubit® RNA HS Assay Kit and a Qubit 3.0 fluorometer (Invitrogen, Carlsbad, CA) followed by agarose gel electrophoresis. Libraries were generated using the Ion AmpliSeq™ Transcriptome Mouse Gene Expression Core Panel and Chef-Ready Kit (Comprehensive evaluation of AmpliSeq transcriptome, a whole transcriptome RNA sequencing methodology) (Thermo Fisher Scientific, Waltham, MA). Briefly, 10 ng of RNA was reverse transcribed with SuperScript™ Vilo™ cDNA Synthesis Kit (Thermo Fisher Scientific, Waltham, MA) before library preparation on the Ion Chef™ instrument (Thermo Fisher Scientific, Waltham, MA). The resulting cDNA was amplified to prepare barcoded libraries using the Ion Code™ PCR Plate, and the Ion AmpliSeq™ Transcriptome Mouse Gene Expression Core Panel (Thermo Fisher Scientific, Waltham, MA), Chef-Ready Kit, according to the manufacturer’s instructions. Barcoded libraries were combined to a final concentration of 100 p.m., and used to prepare Template-Positive Ion Sphere™ (Thermo Fisher Scientific, Waltham, MA) Particles to load on Ion 540™ Chips, using the Ion 540™ Kit-Chef (Thermo Fisher Scientific, Waltham, MA). Sequencing was performed on an Ion S5™ Sequencer with Torrent Suite™ Software v6 (Thermo Fisher Scientific, Waltham, MA). The analyses were performed with a range of fold <−2 and >+2 and a p value <0.05, using Transcriptome Analysis Console Software (version 4.0.1), certified for AmpliSeq analysis (Thermo-Fisher). The transcriptomic data have been deposited as dataset on Mendeley data repository (reference number linking to the repository: Fiorucci, Stefano; Biagioli, Michele; Marchianò, Silvia; Di Giorgio, Cristina (2021), “Discovery of potent dual GPBAR1/CysLT1R modulator for the treatment of metabolic fatty liver disease,” Mendeley Data, V1, doi: 10.17632/6dnrk9fc72.1).

Question: For `O=C(O)c1cccc(-c2ccc(OCc3ccc4ccccc4n3)cc2)c1` [Compound 2, 4'-(quinolin-2-ylmethoxy)-[1,1′-biphenyl]-3-carboxylic acid], which “Uhrf1 transcript Avg (log2)” value (HFD-F + compound 2) is on record?
Answer: 0.79 log2

Question: What about the “Upp2 transcript Avg (log2)” value (HFD-F + compound 2) of the same compound?
Answer: 9.06 log2

Question: What about the “Usp2 transcript Avg (log2)” value (HFD-F + compound 2) of the same compound?
Answer: 5.61 log2

Question: And the “Wrn transcript Avg (log2)” value (HFD-F + compound 2)?
Answer: 3.27 log2

Question: And the “Zfp101 transcript Avg (log2)” value (HFD-F + compound 2)?
Answer: 1.28 log2

Question: What about the “Zfp445 transcript Avg (log2)” value (HFD-F + compound 2) of the same compound?
Answer: 6.23 log2

Question: What about the “1810011O10Rik transcript Fold Change” value (HFD-F + compound 2 vs HFD-F) of the same compound?
Answer: -2.01

Question: And the “2310001K24Rik transcript Fold Change” value (HFD-F + compound 2 vs HFD-F)?
Answer: 2.31

Question: And the “2310039H08Rik transcript Fold Change” value (HFD-F + compound 2 vs HFD-F)?
Answer: -2.25

Question: And the “4833423E24Rik transcript Fold Change” value (HFD-F + compound 2 vs HFD-F)?
Answer: 2.15

Question: And the “6430573F11Rik transcript Fold Change” value (HFD-F + compound 2 vs HFD-F)?
Answer: -2.15

Question: What about the “AW549542 transcript Fold Change” value (HFD-F + compound 2 vs HFD-F) of the same compound?
Answer: 2.59

Question: And the “Abcb1a transcript Fold Change” value (HFD-F + compound 2 vs HFD-F)?
Answer: 2.07

Question: And the “Acod1 transcript Fold Change” value (HFD-F + compound 2 vs HFD-F)?
Answer: -7.35

Question: And the “Acot3 transcript Fold Change” value (HFD-F + compound 2 vs HFD-F)?
Answer: 2.07

Question: What about the “Adam8 transcript Fold Change” value (HFD-F + compound 2 vs HFD-F) of the same compound?
Answer: -2.4

Question: What about the “Adam11 transcript Fold Change” value (HFD-F + compound 2 vs HFD-F) of the same compound?
Answer: 2.06

Question: And the “Anxa2 transcript Fold Change” value (HFD-F + compound 2 vs HFD-F)?
Answer: -2.16

Question: And the “Apcs transcript Fold Change” value (HFD-F + compound 2 vs HFD-F)?
Answer: -2.14

Question: What about the “Arntl transcript Fold Change” value (HFD-F + compound 2 vs HFD-F) of the same compound?
Answer: -2.68

Question: What about the “Arsg transcript Fold Change” value (HFD-F + compound 2 vs HFD-F) of the same compound?
Answer: -2.22

Question: What about the “Atp1a3 transcript Fold Change” value (HFD-F + compound 2 vs HFD-F) of the same compound?
Answer: -2.15

Question: And the “Aurka transcript Fold Change” value (HFD-F + compound 2 vs HFD-F)?
Answer: -2.11

Question: And the “Avpr1a transcript Fold Change” value (HFD-F + compound 2 vs HFD-F)?
Answer: -2.31

Question: What about the “Bcat1 transcript Fold Change” value (HFD-F + compound 2 vs HFD-F) of the same compound?
Answer: -2.27

Question: What about the “C920009B18Rik transcript Fold Change” value (HFD-F + compound 2 vs HFD-F) of the same compound?
Answer: -2.05

Question: What about the “Cabyr transcript Fold Change” value (HFD-F + compound 2 vs HFD-F) of the same compound?
Answer: 2.35

Question: And the “Capn11 transcript Fold Change” value (HFD-F + compound 2 vs HFD-F)?
Answer: 3.56

Question: What about the “Ccl2 transcript Fold Change” value (HFD-F + compound 2 vs HFD-F) of the same compound?
Answer: –9.45

Question: And the “Ccl3 transcript Fold Change” value (HFD-F + compound 2 vs HFD-F)?
Answer: –45.68

Question: What about the “Ccl4 transcript Fold Change” value (HFD-F + compound 2 vs HFD-F) of the same compound?
Answer: -3.76

Question: What about the “Ccl7 transcript Fold Change” value (HFD-F + compound 2 vs HFD-F) of the same compound?
Answer: -5.24

Question: What about the “Ccl9 transcript Fold Change” value (HFD-F + compound 2 vs HFD-F) of the same compound?
Answer: -2.83

Question: What about the “Cd9 transcript Fold Change” value (HFD-F + compound 2 vs HFD-F) of the same compound?
Answer: -2.05

Question: And the “Cd14 transcript Fold Change” value (HFD-F + compound 2 vs HFD-F)?
Answer: -2.38

Question: And the “Cd36 transcript Fold Change” value (HFD-F + compound 2 vs HFD-F)?
Answer: -2.5

Question: What about the “Cd63 transcript Fold Change” value (HFD-F + compound 2 vs HFD-F) of the same compound?
Answer: -2.18

Question: What about the “Cdk1 transcript Fold Change” value (HFD-F + compound 2 vs HFD-F) of the same compound?
Answer: -2.15

Question: What about the “Cdkl2 transcript Fold Change” value (HFD-F + compound 2 vs HFD-F) of the same compound?
Answer: -2.13

Question: And the “Cdkn1a transcript Fold Change” value (HFD-F + compound 2 vs HFD-F)?
Answer: -7.58

Question: What about the “Cdkn3 transcript Fold Change” value (HFD-F + compound 2 vs HFD-F) of the same compound?
Answer: -2.22

Question: What about the “Ces2b transcript Fold Change” value (HFD-F + compound 2 vs HFD-F) of the same compound?
Answer: 3.35

Question: And the “Cetn4 transcript Fold Change” value (HFD-F + compound 2 vs HFD-F)?
Answer: 2.21

Question: What about the “Chka transcript Fold Change” value (HFD-F + compound 2 vs HFD-F) of the same compound?
Answer: -3.91

Question: What about the “Chrna4 transcript Fold Change” value (HFD-F + compound 2 vs HFD-F) of the same compound?
Answer: -3.1

Question: And the “Cidea transcript Fold Change” value (HFD-F + compound 2 vs HFD-F)?
Answer: -4.55

Question: What about the “Cidec transcript Fold Change” value (HFD-F + compound 2 vs HFD-F) of the same compound?
Answer: -3.63

Question: What about the “Cirbp transcript Fold Change” value (HFD-F + compound 2 vs HFD-F) of the same compound?
Answer: 2.31

Question: What about the “Ckap2 transcript Fold Change” value (HFD-F + compound 2 vs HFD-F) of the same compound?
Answer: -2.19

Question: What about the “Clec4e transcript Fold Change” value (HFD-F + compound 2 vs HFD-F) of the same compound?
Answer: -2.29

Question: What about the “Clec4d transcript Fold Change” value (HFD-F + compound 2 vs HFD-F) of the same compound?
Answer: -2.99

Question: And the “Col27a1 transcript Fold Change” value (HFD-F + compound 2 vs HFD-F)?
Answer: 3.11

Question: What about the “Csf3 transcript Fold Change” value (HFD-F + compound 2 vs HFD-F) of the same compound?
Answer: -6.94

Question: What about the “Cxcl2 transcript Fold Change” value (HFD-F + compound 2 vs HFD-F) of the same compound?
Answer: –12.23

Question: What about the “Cyp1a2 transcript Fold Change” value (HFD-F + compound 2 vs HFD-F) of the same compound?
Answer: 4.77

Question: And the “Cyp2a5 transcript Fold Change” value (HFD-F + compound 2 vs HFD-F)?
Answer: 2.79

Question: And the “Cyp7a1 transcript Fold Change” value (HFD-F + compound 2 vs HFD-F)?
Answer: 3.98

Question: What about the “Cyp17a1 transcript Fold Change” value (HFD-F + compound 2 vs HFD-F) of the same compound?
Answer: -2.12

Question: What about the “D17H6S56E-5 transcript Fold Change” value (HFD-F + compound 2 vs HFD-F) of the same compound?
Answer: -2.1

Question: And the “Dbp transcript Fold Change” value (HFD-F + compound 2 vs HFD-F)?
Answer: 3.21

Question: What about the “Defb1 transcript Fold Change” value (HFD-F + compound 2 vs HFD-F) of the same compound?
Answer: -2.44

Question: And the “Derl2 transcript Fold Change” value (HFD-F + compound 2 vs HFD-F)?
Answer: -2.01

Question: And the “Dhrs9 transcript Fold Change” value (HFD-F + compound 2 vs HFD-F)?
Answer: -2.42

Question: And the “Dtx4 transcript Fold Change” value (HFD-F + compound 2 vs HFD-F)?
Answer: -2.1

Question: And the “Dusp8 transcript Fold Change” value (HFD-F + compound 2 vs HFD-F)?
Answer: -2.11

Question: What about the “Egr1 transcript Fold Change” value (HFD-F + compound 2 vs HFD-F) of the same compound?
Answer: -4.09

Question: What about the “Ell transcript Fold Change” value (HFD-F + compound 2 vs HFD-F) of the same compound?
Answer: 2.35

Question: What about the “Elovl3 transcript Fold Change” value (HFD-F + compound 2 vs HFD-F) of the same compound?
Answer: -2.38

Question: And the “Elovl5 transcript Fold Change” value (HFD-F + compound 2 vs HFD-F)?
Answer: -2.41

Question: And the “Ephb2 transcript Fold Change” value (HFD-F + compound 2 vs HFD-F)?
Answer: -2.63

Question: And the “Epm2aip1 transcript Fold Change” value (HFD-F + compound 2 vs HFD-F)?
Answer: -2.65

Question: What about the “Fam57a transcript Fold Change” value (HFD-F + compound 2 vs HFD-F) of the same compound?
Answer: 2.55

Question: What about the “Fgf21 transcript Fold Change” value (HFD-F + compound 2 vs HFD-F) of the same compound?
Answer: -6.9

Question: What about the “Fxyd2 transcript Fold Change” value (HFD-F + compound 2 vs HFD-F) of the same compound?
Answer: -2.25

Question: And the “Gdf15 transcript Fold Change” value (HFD-F + compound 2 vs HFD-F)?
Answer: -3.99

Question: And the “Glipr1 transcript Fold Change” value (HFD-F + compound 2 vs HFD-F)?
Answer: -2.13

Question: What about the “Glipr2 transcript Fold Change” value (HFD-F + compound 2 vs HFD-F) of the same compound?
Answer: -2.29

Question: What about the “Gm16063 transcript Fold Change” value (HFD-F + compound 2 vs HFD-F) of the same compound?
Answer: 2.05

Question: What about the “Gm30692 transcript Fold Change” value (HFD-F + compound 2 vs HFD-F) of the same compound?
Answer: -2.13

Question: What about the “Gm31555 transcript Fold Change” value (HFD-F + compound 2 vs HFD-F) of the same compound?
Answer: 2.49
